The values below come from patent publication US12673975B2, “Cyclic peptide, cell scaffold material, cell separating material, and medium” (FUJIFILM Corporation, priority 2019, dated 2026).

The nature of series [1]: Evaluation of molecule stability (alkali treatment, residual rate by LC/MS). The class given is physicochemical. As to conditions: for Performance evaluation: Stability (residual rate of cyclic peptide after alkali treatment): 500 μM peptide aqueous solution plus equivalent of 1 M sodium hydroxide, 15° C., 3 hours, LC/MS peak area; for Stability (molecule stability, residual rate of the cyclic peptide rank): alkali treatment, residual rate by LC/MS. The protocol: The molecule stability of the cyclic peptide was evaluated by analyzing the alkali-treated cyclic peptide aqueous solution by liquid chromatography mass spectroscopy (LC/MS).
The alkali treatment was carried out by the following method. A 500 μM cyclic peptide aqueous solution was prepared, an equivalent of 1 M sodium hydroxide aqueous solution was added to this aqueous solution, and the resultant mixture was incubated at 15° C. for 3 hours to obtain an alkali-treated cyclic peptide aqueous solution. The cyclic peptide residual rate was calculated by setting the total area of all peaks of the cyclic peptide before alkali treatment in LC/MS to 100% and determining the proportion of the total area of all peaks in LC/MS of the alkali-treated cyclic peptide aqueous solution, and the molecule stability was evaluated according to the following evaluation standards. It is preferable that the evaluation result satisfies the evaluation standard A, B, or C.
The conditions of the LC/MS used for the evaluation of molecule stability were set as follows. • LC apparatus: Prominence series (pump, column oven, autosampler, detector) (manufactured by Shimadzu Corporation) • MS detector: LC/MS2010EV (manufactured by Shimadzu Corporation) • Column: Cadenza CD-C18, inner diameter 2.0 mm×length 250 mm, particle size: 3 μm (manufactured by Imtakt Corporation) • Eluent A: a solution (pH 3) containing 10 mM ammonium formate as a solute, where the solvent is 100% water. • Eluent B: a solution (pH 3) containing 10 mM ammonium formate as a solute, where the solvent is acetonitrile/water=90/10. • Flow rate: 0.2 mL/min • Injection volume: 4 μL • Gradient: 0% to 30%: Eluent B (0 to 30 minutes), 100%: Eluent B (30 to 40 minutes), 0%: Eluent B (40 to 60 minutes) • Column temperature: 45° C. • Ionization method: electrospray ionization (ESI) positive, ESI negative

In series [2] the target is human integrin αvβ5 (Homo sapiens, UniProt P06756+P18084). The series is described as follows: Evaluation of integrin binding property (surface plasmon resonance, Biacore 3000, immobilized cyclic peptide). The protocol: A commercially available CMS (a carboxymethyl dextran introduction type, manufactured by GE Healthcare) sensor chip was set in Biacore 3000, which is a surface plasmon resonance apparatus manufactured by GE Healthcare, the sensor was stabilized at a flow rate of 10 μL/min of a HEPES (4-(2-hydroxyethyl)-1-piperazineethanesulfonic acid) buffer solution (20 mM HEPES-HCl, 150 mM NaCl, pH 7.4) for surface plasmon resonance (SPR), and 70 μL of a mixed aqueous solution of 0.2 M 1-(3-dimethylaminopropyl)-3-ethylcarbodiimide (EDC) and 0.04 M N-hydroxysuccinimide (NHS) was added thereto. Here, the concentration unit M represents mol/L, and the same applies hereinafter. Then, 20 μL of the sample solution of each of the above cyclic peptides diluted to 0.2 g/L with the HEPES buffer solution was supplied to the sensor chip, blocking treatment was subsequently carried out with an ethanolamine solution, and washing was carried out with a sodium hydroxide aqueous solution, whereby immobilization was carried out. However, only for the cyclic peptides 125, 126, and 127, in which the number of lysine residues having an amino group as the immobilizing functional group was zero, the amount of the sample solution to be supplied to the sensor chip was set to 500 μL instead of 20 μL. Further, 70 μL of the mixed aqueous solution of 0.2 M EDC and 0.04 M NHS was added to another flow channel of the same sensor chip without immobilizing the sample, and then blocking treatment and washing treatment were carried out. Hereinafter, the obtained immobilization-treated sensor chip is referred to as an “immobilization-treated sensor chip A”.
Sequence of human integrin αvβ5 (P06756 31-1048): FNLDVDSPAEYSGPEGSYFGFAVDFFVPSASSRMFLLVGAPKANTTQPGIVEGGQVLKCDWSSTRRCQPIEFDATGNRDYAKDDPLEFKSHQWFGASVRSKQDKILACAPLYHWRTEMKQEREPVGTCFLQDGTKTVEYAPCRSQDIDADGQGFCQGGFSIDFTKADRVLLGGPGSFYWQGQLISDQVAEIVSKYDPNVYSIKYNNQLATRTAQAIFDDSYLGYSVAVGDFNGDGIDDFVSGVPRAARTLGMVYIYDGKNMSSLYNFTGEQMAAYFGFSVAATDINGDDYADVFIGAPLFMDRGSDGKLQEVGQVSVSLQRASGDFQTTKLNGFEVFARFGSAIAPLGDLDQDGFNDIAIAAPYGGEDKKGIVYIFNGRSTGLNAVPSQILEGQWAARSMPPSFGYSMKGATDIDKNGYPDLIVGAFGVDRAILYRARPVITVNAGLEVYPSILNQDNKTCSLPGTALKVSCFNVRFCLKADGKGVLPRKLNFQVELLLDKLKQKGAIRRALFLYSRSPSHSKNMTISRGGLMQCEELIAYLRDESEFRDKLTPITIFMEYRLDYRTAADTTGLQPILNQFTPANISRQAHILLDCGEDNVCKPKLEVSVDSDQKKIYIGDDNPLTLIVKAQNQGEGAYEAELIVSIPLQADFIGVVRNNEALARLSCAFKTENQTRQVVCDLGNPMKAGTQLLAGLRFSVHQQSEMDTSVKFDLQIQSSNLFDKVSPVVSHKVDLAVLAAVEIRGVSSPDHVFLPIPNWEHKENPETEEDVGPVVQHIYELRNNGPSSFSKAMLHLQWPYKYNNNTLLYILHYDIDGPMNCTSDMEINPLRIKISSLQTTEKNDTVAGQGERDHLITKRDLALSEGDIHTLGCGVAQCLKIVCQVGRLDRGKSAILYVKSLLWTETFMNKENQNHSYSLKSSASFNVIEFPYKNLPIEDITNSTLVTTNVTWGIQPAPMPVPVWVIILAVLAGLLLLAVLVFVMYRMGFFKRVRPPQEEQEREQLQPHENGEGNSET
Sequence of human integrin αvβ5 (P18084 24-799): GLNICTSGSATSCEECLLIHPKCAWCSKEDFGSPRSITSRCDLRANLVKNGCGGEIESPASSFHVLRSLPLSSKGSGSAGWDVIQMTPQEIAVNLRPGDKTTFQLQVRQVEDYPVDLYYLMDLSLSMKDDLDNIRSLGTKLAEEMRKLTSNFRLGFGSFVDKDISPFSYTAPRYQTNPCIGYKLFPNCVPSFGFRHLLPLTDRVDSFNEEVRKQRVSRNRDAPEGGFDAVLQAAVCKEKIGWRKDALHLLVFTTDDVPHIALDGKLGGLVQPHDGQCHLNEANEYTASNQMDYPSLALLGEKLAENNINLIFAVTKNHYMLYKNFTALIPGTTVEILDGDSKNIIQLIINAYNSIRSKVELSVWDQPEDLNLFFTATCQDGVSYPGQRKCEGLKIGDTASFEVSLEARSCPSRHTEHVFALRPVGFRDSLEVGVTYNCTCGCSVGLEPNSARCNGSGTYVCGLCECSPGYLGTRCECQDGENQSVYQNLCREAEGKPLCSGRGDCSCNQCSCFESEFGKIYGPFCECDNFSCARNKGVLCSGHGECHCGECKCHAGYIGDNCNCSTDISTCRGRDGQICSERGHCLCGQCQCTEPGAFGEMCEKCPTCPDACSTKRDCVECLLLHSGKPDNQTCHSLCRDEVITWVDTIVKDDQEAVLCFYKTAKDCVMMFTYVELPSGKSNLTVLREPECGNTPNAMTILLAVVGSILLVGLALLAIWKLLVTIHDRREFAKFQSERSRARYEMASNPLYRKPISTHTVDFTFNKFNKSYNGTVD
After adding human integrin αvβ5 for 10 minutes at 25° C., which was diluted to 30 nM using a HEPES buffer solution to which magnesium chloride was added to 5 mM, in each flow channel of the immobilization-treated sensor chip A prepared in (1) above, the same HEPES buffer solution (containing 5 mM magnesium chloride) was allowed to flow as a running buffer for 30 minutes, and measurement was carried out with Biacore 3000. Then, a regeneration treatment of removing human integrin αvβ5 was carried out by allowing a 0.5 M EDTA aqueous solution to flow through each flow channel for 10 minutes. Further, the above-described measurement process consisting of adding integrin for 10 minutes, allowing a running buffer to flow for 30 minutes, carrying out measurement with Biacore 3000, and carrying out regeneration treatment with 0.5 M EDTA aqueous solution was carried out in the same manner for 100 nM human integrin αvβ5, 300 nM human integrin αvβ5, and 1,000 nM human integrin αvβ5. Dissociation constant between the cyclic peptide and human integrin αvβ5 was calculated from the difference between the value measured by Biacore 3000 in the flow channel immobilized with the cyclic peptide and the value measured by Biacore 3000 in the flow channel unimmobilized with the cyclic peptide, in a case where each concentration of human integrin αvβ5 was allowed to flow, and the integrin binding property was evaluated according to the following evaluation standards. It is preferable that the evaluation result satisfies the evaluation standard A, B, or C.
(SPR reads the build-up and loss of mass on a sensor chip optically.)

Setting [3] is: SPR, 25° C., HEPES buffer with 5 mM magnesium chloride, integrin 30-1,000 nM, read-out: Performance evaluation: Binding activity (dissociation constant between the cyclic peptide and human integrin αvβ5).
[4] abbreviates: surface plasmon resonance, immobilized cyclic peptide, human integrin αvβ5, read-out: Binding activity (integrin binding property, dissociation constant rank).

Each structure is given as a SMILES string. Read-outs that look alike come from different tables or passages of the source. Starred links: 1 amine or outer side, 2 acyl side, 3 side chain; linkers in the order of their positions; H or OH if unused. Positions of bridges follow the written chain, without caps; N, C: chain ends. Non-standard residues stand in square brackets, D forms with d. Residues, ends and D or L forms follow the SMILES beside them. hCys = N[C@@H](CCS)C(=O)O; Dab = NCC[C@H](N)C(=O)O; X1 = O=C(C[*:2])[*:1]; X2 = O=C(C[*:1])[*:2] A value given as a limit tells only on which side of the number the result lay.

On to `CC[C@H](C)[C@@H]1NC(=O)[C@@H](NC(=O)[C@H](CCCCN)NC(=O)[C@H](CCCCN)NC(=O)[C@@H](N)CCCCN)CCSCC(=O)NCC[C@@H](C(=O)N[C@@H](C)C(=O)O)NC(=O)[C@H](CCCNC(=N)N)NC(=O)[C@H](Cc2ccccc2)NC(=O)[C@H](CC(N)=O)NC(=O)[C@H](CC(=O)O)NC(=O)CNC(=O)[C@H](CCCNC(=N)N)NC(=O)[C@@H]2CCCN2C1=O` [Cyclic peptide 3, KKK-(Hcy)-IPRGDNFR(Dab(acetyl))A] (H-KKK[hCys]IPRGDNFR[Dab]A-OH; linker 4-13 via X2), for which the “Performance evaluation: Stability (residual rate of cyclic peptide after alkali treatment)” value in series [1] is recorded as “A (The residual rate of the cyclic peptide is 70% or more.)”. In series [2] (setting [3]), the Kd was below 50 nM.

As for `CC[C@H](C)[C@@H]1NC(=O)[C@@H](NC(=O)[C@H](C)NC(=O)[C@H](CCCCN)NC(=O)[C@H](CCCCN)NC(=O)[C@@H](N)CCCCN)CCSCC(=O)NCC[C@@H](C(=O)NCC(=O)O)NC(=O)[C@H](C)NC(=O)[C@H](Cc2ccccc2)NC(=O)[C@H]([C@@H](C)O)NC(=O)[C@H](CC(=O)O)NC(=O)CNC(=O)[C@H](CCCNC(=N)N)NC(=O)[C@@H]2CCCN2C1=O` [Cyclic peptide 85, KKKA-(Hcy)-IPRGDTFA(Dab(acetyl))G] (H-KKKA[hCys]IPRGDTFA[Dab]G-OH; linker 5-14 via X2), the “Performance evaluation: Stability (residual rate of cyclic peptide after alkali treatment)” value in series [1] was “A (The residual rate of the cyclic peptide is 70% or more.)”. The Kd in series [2] (setting [3]) was below 50 nM.

In the case of `CC[C@H](C)[C@@H]1NC(=O)[C@@H](NC(=O)[C@H](C)NC(=O)[C@H](CCCCN)NC(=O)[C@H](CCCCN)NC(=O)[C@@H](N)CCCCN)CCSCC(=O)NCC[C@@H](C(=O)N[C@@H](C)C(=O)O)NC(=O)[C@H](CCCNC(=N)N)NC(=O)[C@H](Cc2ccc(O)cc2)NC(=O)[C@H]([C@@H](C)O)NC(=O)[C@H](CC(=O)O)NC(=O)CNC(=O)[C@H](CCCNC(=N)N)NC(=O)[C@@H]2CCCN2C1=O` [Cyclic peptide 81, KKKA-(Hcy)-IPRGDTYR(Dab(acetyl))A] (H-KKKA[hCys]IPRGDTYR[Dab]A-OH; linker 5-14 via X2), in series [1], the “Performance evaluation: Stability (residual rate of cyclic peptide after alkali treatment)” value is listed as “A (The residual rate of the cyclic peptide is 70% or more.)”. Moreover, the Kd in series [2] (setting [3]) lay in the range of 50 to 100 nM.

As to `CC(C)[C@@H]1NC(=O)[C@@H](NC(=O)[C@H](C)NC(=O)[C@H](CCCCN)NC(=O)[C@H](CCCCN)NC(=O)[C@@H](N)CCCCN)CCSCC(=O)NCC[C@@H](C(=O)NCC(=O)O)NC(=O)[C@H](C)NC(=O)[C@H](Cc2ccccc2)NC(=O)[C@H]([C@@H](C)O)NC(=O)[C@H](CC(=O)O)NC(=O)CNC(=O)[C@H](CCCNC(=N)N)NC(=O)[C@@H]2CCCN2C1=O` [Cyclic peptide 107, KKKA-(Hcy)-VPRGDTFA(Dab(acetyl))G] (H-KKKA[hCys]VPRGDTFA[Dab]G-OH; linker 5-14 via X2), the “Stability (molecule stability, residual rate of the cyclic peptide rank)” value in series [1] is reported as “A (The residual rate of the cyclic peptide is 70% or more.)”. Also, the Kd in series [2] (setting [4]) was below 50 nM.

Consider `CC(C)[C@@H]1NC(=O)[C@H](CC(=O)O)NC(=O)CNC(=O)[C@H](CCCNC(=N)N)NC(=O)[C@@H]2CCCN2C(=O)[C@H](C(C)C)NC(=O)[C@@H](NC(=O)[C@H](CCCCN)NC(=O)[C@H](CCCCN)NC(=O)[C@@H](N)CCCCN)CCSCC(=O)NCC[C@@H](C(=O)O)NC(=O)[C@H](Cc2ccccc2)NC1=O` [Cyclic peptide 66, KKK-(Hcy)-VPRGDVF(Dab(acetyl))] (H-KKK[hCys]VPRGDVF[Dab]-OH; linker 4-12 via X2), for which the “Performance evaluation: Stability (residual rate of cyclic peptide after alkali treatment)” value in series [1] is on record as “A (The residual rate of the cyclic peptide is 70% or more.)”. Moreover, in series [2] (setting [3]), the Kd is below 50 nM.

For `CC(C)[C@@H]1NC(=O)[C@@H](NC(=O)[C@H](CCCCN)NC(=O)[C@H](CCCCN)NC(=O)[C@@H](N)CCCCN)CCSCC(=O)NCC[C@@H](C(=O)O)NC(=O)[C@H](C)NC(=O)[C@H](Cc2ccccc2)NC(=O)[C@H]([C@@H](C)O)NC(=O)[C@H](CC(=O)O)NC(=O)CNC(=O)[C@H](CCCNC(=N)N)NC(=O)[C@H]([C@@H](C)O)NC1=O` [Cyclic peptide 150, KKK-(Hcy)-VTRGDTFA(Dab(acetyl))] (H-KKK[hCys]VTRGDTFA[Dab]-OH; linker 4-13 via X2), the “Stability (molecule stability, residual rate of the cyclic peptide rank)” value in series [1] was “A (The residual rate of the cyclic peptide is 70% or more.)”. Moreover, the Kd in series [2] (setting [4]) is below 50 nM.

As to `CC[C@H](C)[C@@H]1NC(=O)[C@@H](NC(=O)CNC(=O)[C@H](CCCCN)NC(=O)[C@H](CCCCN)NC(=O)[C@@H](N)CCCCN)CCNC(=O)CSC[C@@H](C(=O)N[C@@H](C)C(=O)O)NC(=O)[C@H](CCCNC(=N)N)NC(=O)[C@H](Cc2ccccc2)NC(=O)[C@H]([C@@H](C)O)NC(=O)[C@H](CC(=O)O)NC(=O)CNC(=O)[C@H](CCCNC(=N)N)NC(=O)[C@@H]2CCCN2C1=O` [Cyclic peptide 138, KKKG(Dab(acetyl))IPRGDTFR(C)A] (H-KKKG[Dab]IPRGDTFRCA-OH; linker 5-14 via X1), in series [1], the “Stability (molecule stability, residual rate of the cyclic peptide rank)” value is “C (The residual rate of the cyclic peptide is 30% or more and less than 50%.)”. In addition, the Kd in series [2] (setting [4]) lay in the range of 50 to 100 nM.

Take `CC[C@H](C)[C@@H]1NC(=O)[C@@H](NC(=O)CNC(=O)[C@H](CCCCN)NC(=O)[C@H](CCCCN)NC(=O)[C@@H](N)CCCCN)CCCCNC(=O)CSCC[C@@H](C(=O)N[C@@H](C)C(=O)O)NC(=O)[C@H](CCCNC(=N)N)NC(=O)[C@H](Cc2ccccc2)NC(=O)[C@H]([C@@H](C)O)NC(=O)[C@H](CC(=O)O)NC(=O)CNC(=O)[C@H](CCCNC(=N)N)NC(=O)[C@@H]2CCCN2C1=O` [Cyclic peptide 120, KKKG(Lys(acetyl))IPRGDTFR-(Hcy)-A] (H-KKKGKIPRGDTFR[hCys]A-OH; linker 5-14 via X1): in series [1], the “Stability (molecule stability, residual rate of the cyclic peptide rank)” value is recorded as “A (The residual rate of the cyclic peptide is 70% or more.)”. Moreover, the Kd in series [2] (setting [4]) was in the range of 50 to 100 nM.

With `N=C(N)NCCC[C@@H]1NC(=O)[C@H](Cc2ccc(O)cc2)NC(=O)[C@H](CC(N)=O)NC(=O)[C@H](CC(=O)O)NC(=O)CNC(=O)[C@H](CCCNC(=N)N)NC(=O)[C@@H]2CCCN2C(=O)[C@H](CCC(=O)O)NC(=O)[C@@H](NC(=O)CNC(=O)[C@H](CCCCN)NC(=O)[C@H](CCCCN)NC(=O)[C@@H](N)CCCCN)CCSCC(=O)NCC[C@@H](C(=O)N[C@@H](CC(=O)O)C(=O)O)NC1=O` [Cyclic peptide 37, KKKG-(Hcy)-EPRGDNYR(Dab(acetyl))D] (H-KKKG[hCys]EPRGDNYR[Dab]D-OH; linker 5-14 via X2), the “Performance evaluation: Stability (residual rate of cyclic peptide after alkali treatment)” value in series [1] was “A (The residual rate of the cyclic peptide is 70% or more.)”. In addition, the Kd in series [2] (setting [3]) was in the range of 50 to 100 nM.
